Results from EPA's ToxValDB 9.5.

System: Rattus norvegicus
Conditions: oral
[1] = short-term, duration: 28 days, gavage, F, Sprague-Dawley, Food Consumption: decrease + Hematology: RBC decrease, Hct decrease1000 Hgb decrease1000 Plt increase, PT increase, APTT increase, Ret …
[2] = short-term, duration: 28 days, gavage, M, Sprague-Dawley, Food Consumption: decrease + Hematology: RBC decrease, Hct decrease1000 Hgb decrease1000 Plt increase, PT increase, APTT increase, Ret …
[3] = chronic, duration: 17 weeks, gavage, F, Ash/CSE, Body Weight Changes: decrease
[4] = chronic, duration: 17 weeks, gavage, M, Ash/CSE, Body Weight Changes: decrease
[5] = subchronic, gavage, M, Sprague-Dawley, Clinical Observation: Respiratory noise Irregular respiration Deep respiration R Soiled perigenital region R Oligo-stool R Hypothermia R + …

Question: `Cc1ccc(O)c([N+](=O)[O-])c1` [4-Methyl-2-nitrophenol] was tested. Which NOAEL (short-term, duration: 28 days, gavage, F, Sprague-Dawley, Clinical Observation: Sedation Ptosis Salivation Reddish tear Soiled perineal region + Urinalysis: Yellow colored urine pH decrease + …) did it give?
Answer: The NOAEL was 60 mg/kg-day.

Question: And the NOEL (short-term, duration: 28 days, gavage, M/F, Sprague-Dawley, Clinical Observation: Sedation Ptosis Salivation Reddish tear Soiled perineal region + Urinalysis: Yellow colored urine pH decrease + …)?
Answer: Its NOEL is 60 mg/kg-day.

Question: Which results are given for `O=C1c2ccccc2-c2cccc3cccc1c23` [Benz[de]anthracen-7-one]?
Answer: LOAEL [1]: 60 mg/kg-day; LOEL [1]: 60 mg/kg-day; NOAEL [1]: 15 mg/kg-day; NOEL [1]: 15 mg/kg-day; LOAEL [2]: 60 mg/kg-day; LOEL [2]: 60 mg/kg-day; NOAEL [2]: 15 mg/kg-day; NOEL [2]: 15 mg/kg-day

Question: For `CC(=O)N(C)c1ccccc1` [Acetamide, N-methyl-N-phenyl-], which NOEL (short-term, duration: 28 days, gavage, M/F, Sprague-Dawley, Deaths + Clinical Observation: Clonic convulsion Cyanosis Salivation Rearing decrease + Body Weight Changes: decrease + Food Consumption: …) is on record?
Answer: The NOEL was under 20 mg/kg-day.

Question: For `ClCc1ccc(Cl)c(Cl)c1` [Benzene, 1,2-dichloro-4-(chloromethyl)-], which NOEL (short-term, duration: 28 days, gavage, M/F, CD(SD), Deaths + Urinalysis: Volume, urinary cast increase, Epithelial cell increase + Absolute Organ Weight: Kidney increase, Liver increase + …) is on record?
Answer: The NOEL was under 10 mg/kg-day.

Question: How did the NOEL (subchronic, gavage, M, Sprague-Dawley, Hematology: Hct decrease, Ret increase + Relative Organ Weight: Heat increase, Liver increase, Kidneys increase, Adrenals increase + …) turn out when `Nc1ccc(Cl)cc1[N+](=O)[O-]` [4-Chloro-2-nitroaniline] was run?
Answer: Its NOEL is 10 mg/kg-day.

Question: With `CC(C)CCO` [Isopentyl alcohol] as the compound, how does the NOAEL [3] read?
Answer: The NOAEL was 1000 mg/kg-day.

Question: And the NOEL [3]?
Answer: Its NOEL is 1000 mg/kg-day.

Question: What about the NOAEL [4] of the same compound?
Answer: The NOAEL was 500 mg/kg-day.

Question: And the NOEL [4]?
Answer: Its NOEL is 500 mg/kg-day.

Question: For `C[N+](C)(C)CC(=O)[O-]` [Betaine], which NOEL (subchronic, diet, M/F, Sprague-Dawley, Food Consumption: decrease + Urinalysis: Urine volume increase,pH decrease + Hematology: Plt increase, Fib increase + Blood Chemistry: Alp …) is on record?
Answer: The NOEL was under 1%.

Question: With `CCN1CCc2c3n(c4ccccc24)C(C(=O)OC)=CCC31.Cl` (stereo not drawn) as the compound, how does the NOEL (chronic, duration: 91 days, gavage, M/F, CD, Clinical Observation: Salivation Greenish urine + Urinalysis: Greenish, or Dark green urine Quarry placoid crystal Urinary cast Volume …) read?
Answer: The NOEL was 50 mg/kg-day.

Question: How did the NOEL (subchronic, gavage, M/F, Fischer 344, Deaths + Body Weight Changes: decrease + Food Consumption: decrease + Absolute Organ Weight: Spleen decrease, Forestomach increase>60 …) turn out when `CC(C)(C)OOC(=O)c1ccccc1` [tert-Butyl perbenzoate] was run?
Answer: The NOEL was under 30 mg/kg-day.

Question: Which NOEL (chronic, duration: 14 weeks, gavage, M/F, Fischer 344, Deaths + Clinical Observation: Pupillary dilation Reddening of eyes Hypoactivity + Body Weight Changes: decrease + Hematology: Hgb increase…) does the source give for `Br.CN1[C@@H]2CC(OC(=O)[C@H](CO)c3ccccc3)C[C@H]1[C@@H]1O[C@@H]12.O.O.O` (stereo partly drawn) [Scopolamine hydrobromide trihydrate] here?
Answer: The NOEL was under 15 mg/kg-day.

Question: How did the NOEL (subchronic, gavage, M/F, Fischer 344, Deaths + Body Weight Changes: decrease + Hematology: Hgb decrease, Plt increase, WBC increase + Blood Chemistry: TP decrease, Alb decrease, …) turn out when `C=CCOC(C)=O` [Allyl acetate] was run?
Answer: The NOEL was under 6 mg/kg-day.

Question: How did the NOEL (short-term, duration: 28 days, gavage, M/F, CD(SD), Deaths + Clinical Observation: Salivation + Urinalysis: Volume increase, Osmotic pressure decrease, Small epidermal cell + Blood Chemistry: …) turn out when `BrC=Cc1ccccc1` [(2-Bromovinyl)benzene] was run?
Answer: The NOEL was 30 mg/kg-day.

Question: `COc1ccc(N)c([N+](=O)[O-])c1` [4-Methoxy-2-nitroaniline] was tested. Which NOEL (subchronic, gavage, M, Sprague-Dawley, Clinical Observation: Orangish urine Soiled fur Salivation + Body Weight Changes: decrease(trend) + Food Consumption: decrease + Absolute …) did it give?
Answer: The NOEL was under 12.5 mg/kg-day.

Question: `Cc1ccc(S(=O)(=O)O)c(C)c1` [2,4-Dimethylbenzenesulfonic acid] was tested. Which LOEL [5] did it give?
Answer: The LOEL was 500 mg/kg-day.

Question: What about the NOEL [5] of the same compound?
Answer: The NOEL was 100 mg/kg-day.

Question: With `CC(CN1c2ccccc2Sc2ccccc21)N(C)C.Cl` (stereo not drawn) [Promethazine hydrochloride] as the compound, how does the NOEL (subchronic, duration: 13 weeks, gavage, M/F, Fischer 344, Deaths + Clinical Observation: Hunched posture Labored respiration Abnormal respiratory sounds + Body Weight Changes: decrease + Absolute …) read?
Answer: Its NOEL is 3.7 mg/kg-day.

Question: How did the NOEL (subchronic, gavage, M/F, Fischer 344, Deaths + Body Weight Changes: decrease af>>>10 + Hematology: Plt decrease Hct decrease, Hgb decrease, RBC decrease Ret increase, WBC …) turn out when `[O-][N+](=Nc1ccc(Cl)c(Cl)c1)c1ccc(Cl)c(Cl)c1` [3,3',4,4'-Tetrachloroazoxybenzene] was run?
Answer: Its NOEL is under 0.1 mg/kg-day.
